The subject of data set [1] is SK-N-SH cells. Nature of the data set: CellTiter 96 Aqueous One (MTS) cell proliferation assay. Format: cell-based, human. The protocol:
(§1) The CellTiter 96 Aqueous One solution Cell Proliferation Assay (2-(4,5-dimethylthiazol-2-yl)-5-(3-carboxymethoxyphenyl)-2-(4-sulfophenyl)-2H-tetrazolium, inner salt; MTS) (Promega, San Luis Obispo, Calif.) was used to determine the viability of cells treated with GlbA and SylA. Briefly, SK-N-SH and SKOV3 cells were seeded in clear, 96 well plates, as described (Example 11), and cultured for 18-24 hours. Ten μl GlbA or SylA were added at different concentrations (0-100 μM) and incubated for 48 hours. After the experiment, 20 uL of tetrazolium CellTiter 96 Aqueous One Solution Reagent was added to wells, incubated for 75-150 min. at 37° C. The absorbance was measured at 490 nm using a Perkin Elmer HTS7000 Plus bioassay reader.

A further data set relates to SKOV3 cells. The description is as above. Format: cell-based, human. The protocol:
as §1

Data set [2] relates to SK-N-SH cells. Kind of data set: Cytox-Glo cytotoxicity assay. Format: cell-based, human. The note with it: for cytotoxicity: 0.25 μM GlbA or 25 μM SylA, 48 hours; for cytotoxicity in the presence of 3-MA: pre-treated with 3-MA. The protocol:
Determination of potential cytotoxic effects by GlbA and/or […] was carried out by using the Cytox-Glo cytotoxicity assay, which measures “dead cell proteases” from cells that have lost membrane integrity. Briefly, cells were treated with a single concentration of compound for 48 hours in a final volume of 100 μl, after which 50 μl of AAF-Glo luminogenic peptide substrate (alanyl-alanyl-phenylalanyl-aminoluciferin) was added to each well and incubated for 15 min at room temperature. The luminescence was measured by a Dynex MLX luminometer to give a reading of cells with damaged membranes. Next, 50 μl of digitonin was added to each well and the samples incubated for 15 minutes at room temperature. Luminescence was measured a second time to determine total cell number. Controls included cells with vehicle only, media, and media with compound.
SK-N-SH cells were treated with 0.25 μM GlbA or 25 μM SylA and SKOV3 cells were treated with 1.0 μM GlbA or 25 μM SylA. As illustrated in FIGS. 16A and 16B, control cells (treated with DMSO and H2O representing GlbA and SylA controls, respectively) were viable and no cytotoxicity was detected.
To determine if autophagy plays a role in GlbA/SylA-induced cell death, levels of cytotoxicity in cells pre-treated with 3-methyladenine (3-MA), an established autophagy inhibitor, were measured using the assay described in Example 12.

Data set [3] relates to SK-N-SH cells. Nature of the data set: annexin V assay by flow cytometry. Type of data set: cell-based, human. As to conditions: 25 μM, 48 hours. The procedure: SK-N-SH cells at a concentration of 1.0×10^5 cells per ml were seeded in 12-well plates containing 1 ml of culture medium per well. After 24 hours, 10 μl of syringolin A (25 μM final concentration) or an equal volume of sterile water (control) was added per well. Cells were incubated for 48 hours, trypsinized, washed twice in phosphate-buffered saline (PBS) and were counted; 1-2×10^5 cells suspended in 0.1 ml of 1× assay buffer per vial according to the manufacturer's instructions (BD Biosciences, Palo Alto, Calif.). Cells were stained with annexin V-FITC (5 μl) for 15 minutes in the dark, at room temperature. Assay buffer (0.4 ml) was added, and 5000 cells were analyzed using a FACScan flow cytometer (Becton Dickinson, San Jose, Calif.). The […] program was used for data analysis.
(In flow cytometry, cells or beads pass a laser one at a time.)

In data set [4] the target is T1, proteasome activity in SK-N-SH neuroblastoma cells (Homo sapiens, UniProt P28074).
T1 construct: endogenous in cells; host or cells: SK-N-SH
T1 sequence (P28074 60-263): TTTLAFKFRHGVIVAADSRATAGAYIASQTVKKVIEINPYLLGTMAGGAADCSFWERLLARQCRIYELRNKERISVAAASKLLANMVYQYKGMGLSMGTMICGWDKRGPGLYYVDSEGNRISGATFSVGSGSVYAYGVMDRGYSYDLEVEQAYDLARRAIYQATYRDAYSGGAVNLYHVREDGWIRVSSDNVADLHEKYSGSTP
As to conditions: read-out: IC50 of proteasomal activity, previously determined, Groll et al. 2008; cited from earlier work.

Data set [5] relates to cells colonized by powdery mildew in wheat. The note with it: literature (Amrein 2004; Waspi 1998-2001); cited from earlier work.

Structures are written as SMILES. pIC50: −log10 of the molar value.

We go through two molecules from patent publication US8597904B2, “Pharmaceutical compositions for the treatment of conditions responsive to proteasome inhibition” (priority 2007, dated 2013).

`CCCCCCC/C=C/C=C/C(=O)N[C@H](C(=O)N[C@H]1C[C@@H](O)CCNC(=O)/C=C/[C@H](C)NC1=O)[C@@H](C)O` [glidobactin A]: the cell morphology entry was “severe morphological changes” in the data set on SK-N-SH cells [1] (48 hours) and “severe morphological changes” with SKOV3 cells (SKOV3, 48 hours). The half-maximal effective concentration (EC50) in the data set on SK-N-SH cells [1] (Homo sapiens, 48 hours, MTS) was ~0.14 µM; in the data set with SKOV3 cells (Homo sapiens, SK-OV-3, 48 hours, MTS), ~0.8 µM. Besides, the “effectiveness of GlbA relative to SylA” value is on record as “about 143 fold” with SK-N-SH cells [1] (ratio of EC50) and ~25 fold with SKOV3 cells (SKOV3, ratio of EC50). The cytotoxicity entry in the data set with SK-N-SH cells [2] is given as “about 40%”. Moreover, the “cytotoxicity in the presence of 3-MA” value with SK-N-SH cells [2] is given as “significantly reduced”.

Regarding `CC(C)[C@H](NC(=O)N[C@H](C(=O)N[C@H]1/C=C/CCNC(=O)/C=C/[C@H](C(C)C)NC1=O)C(C)C)C(=O)O` [syringolin A], in the data set with SK-N-SH cells [3], the “annexin V binding” value is “strongly bound annexin V”. In the data set with SK-N-SH cells [2], the cytotoxicity was ~30% and the “cytotoxicity in the presence of 3-MA” value is on record as “significantly reduced”. Moreover, the pIC50 in data set [4] is 5.84. Besides, the hypersensitive cell death entry in data set [5] is given as “induce hypersensitive death of cells colonized by powdery mildew in wheat”.

Usually EC50 stands for the concentration needed to bring the measured effect to its halfway point. Read a low EC50 as a more potent agent. In general, pIC50 refers to the negative decadic logarithm of the IC50, by convention in mol/L.
